From patent US20050054629A1, “Compounds and methods of treating cell proliferative diseases” (priority 2002, published 2005) come the findings set out here.

SMILES strings stand for the structures. Like-named read-outs stand apart in the source and are kept apart here.

The test system of one experiment is Rac. As to the kind of experiment: Rac-dependant signaling pathway analysis (reporter system). The experiment is classed as cell-based. Also on record: key: −: no effect of the compound was observed; +: an effect of the compound was observed. The procedure:
The impact of the compounds on Ras and Rac signaling pathways was analysed with two reporter systems described by Imler (Nature 1988) and Lin (Science, 1995) respectively on one hand, and by a colony formation assay in the presence of constitutively activated Ras (RasV12) and Rac (RacV12) on the other hand. For this latter experiment, fifty percent confluent NIH3T3 cells in a 10 cm diameter petri dish were transfected with 0.5 μg pSV2-RasV12 or 0.5 μg pEXV RacV12 plasmids plus 100 ng of pSV2-neomycin plasmid using Lipofectamine-Plus reagent (Invitrogen) according to the manufacturer's instructions. Forty-eight hours later, cells were trypsinised, splitted to ⅓, and incubated in the presence of complete medium supplemented with 400 μg/ml geneticin (Invitrogen) and different doses of compound (1, 10, 17.5, 25 and 50 μM) until emerging resistant clones appear (2-3 weeks). The medium was renewed every 3 days. Colonies with a minimum of 50 cells were counted after staining with Fuschin 2%.

Another experiment concerns MMP-9. Nature of the experiment: Gelatin zymography. The experiment is classed as cell-based, human. Particulars: MDA-MB-231 supernatant. Here is the method:
(§1) The activity of the metalloproteases MMP-2 and MMP-9 was assayed using gelatinolytic zymography according to Lambert (Surgery 1997). Briefly, MDA-MB-231 cells were incubated overnight in serum-free medium supplemented with ITS liquid supplement (Sigma) with different concentrations of compound (1, 10, 17.5, 25 and 50 μM). Supernatant was collected and concentrated with Ultrafree 30 kDA (Millipore). Equal amount of proteins, as determined by Bradford measurement, were loaded onto a 10% w/v polyacrylamide gel containing 1% gelatin and 0.1% SDS (Novex). After electrophoresis, gels were washed in Novex Zymogram Renaturing buffer for 30 min at room temperature and incubated overnight at 37° C. in Novex Zymogram developing buffer. Gels were stained in Coomassie Brilliant Blue G-250, and the gelatinolytic activity was visualized as a clear band against the blue background of the stained gelatin.

For a further experiment, the system named is MMP-2. Nature of the experiment: Gelatin zymography. Format: cell-based, human. As to conditions: MDA-MB-231 supernatant. Here is the method:
as §1

A further experiment relates to NIH3T3. Nature of the experiment: Cytoskeleton analysis, actin staining (FITC-phalloidin). Format: cell-based, mouse. As to conditions: for Cell architecture modification actin staining (R: ruffles; FC: focal complexes) NIH3T3: 24 h treatment; for concentration at which specific inhibition of membrane ruffles and increase in the number of stress fibers was observed: NIH3T3, actin staining. In outline: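 Subconfluent cells on coverslips were exposed to compound at 1, 10, 17.5, 25 or 50 μM, or to vehicle, for 24 h. They were then formaldehyde-fixed, Triton-permeabilized and blocked. Actin was stained with 0.5 μg/ml FITC-phalloidin for 1 h and imaged by inverted fluorescence microscopy.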

The test system of experiment [1] is HCT116 colon adenocarcinoma. Nature of the experiment: Cytotoxicity assay (MTT), 6 days. The experiment is classed as cell-based, human. As to conditions: 6 days of treatment, read-out: Toxicity 6d (IC 50, μM) HCT116. In outline: (§2)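 Cells seeded 24 h before treatment with 0, 1, 10, 17.5, 25 and 50 µM compound (1% DMSO), in triplicate. After 6 days, 0.5 mg/ml MTT for 3 h at 37 °C, formazan dissolved in DMSO, absorbance read at 550 nm. Surviving fraction and IC50 calculated.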

The test system of a further experiment is MCF-7 breast carcinoma. Nature of the experiment: Cytotoxicity assay (MTT), 6 days. The experiment is classed as cell-based. Particulars: Homo sapiens, MCF7, 144 h, 6 days of treatment, read-out: Toxicity 6d (IC 50, μM) MCF7. In outline: as §2
The next experiment has as its system NIH3T3 mouse fibroblasts. Nature of the experiment: Cytotoxicity assay (MTT), 6 days. The experiment is classed as cell-based. Particulars: NIH3T3, 144 h, 6 days of treatment, read-out: Toxicity 6d (IC 50, μM) NIH3T3. In outline: as §2
The test system of another experiment is H460 lung carcinoma. As to the kind of experiment: Cytotoxicity assay (MTT), 6 days. The experiment is classed as cell-based. Particulars: Homo sapiens, NCI-H460, 144 h, 6 days of treatment, read-out: Toxicity 6d (IC 50, μM) H460. In outline:
as §2

Experiment [2] relates to MDA-MB-231 breast carcinoma. Nature of the experiment: Cytotoxicity assay (MTT), 6 days. The experiment is classed as cell-based. As to conditions: Homo sapiens, MDA-MB-231, 144 h, 6 days of treatment, read-out: Toxicity 6d (IC 50, μM) MDA231. In outline: as §2
A further experiment has as its system MCF10-A. As to the kind of experiment: Cytotoxicity assay (MTT), 6 days. The experiment is classed as cell-based. As to conditions: Homo sapiens, MCF-10A, 144 h, 6 days of treatment, read-out: Toxicity 6d (IC 50, μM) MCF10-A. In outline:
as §2

Another experiment has as its system NIH3T3 cells. Nature of the experiment: Colony formation assay with constitutively activated Ras (RasV12) and Rac (RacV12). Format: cell-based, mouse. Further details: key to Colony formation: −: no effect of the compound was observed; +: an effect of the compound was observed. In outline: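 Ras and Rac signalling were measured with reporter systems. For colony formation, NIH3T3 cells were transfected with RasV12 or RacV12 plus neomycin plasmids, then grown 2-3 weeks in 400 μg/ml geneticin with compound at 1, 10, 17.5, 25 or 50 μM. Fuchsin-stained colonies of ≥50 cells were counted.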

A further experiment deals with MDA-MB-231 cells. Nature of the experiment: Matrigel invasion assay (Boyden chamber). The experiment is classed as cell-based, human. As to conditions: for Invasion: MDA-MB-231, Boyden chamber, matrigel. In outline:
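MDA-MB-231 cells were pretreated overnight with compound (1, 10, 17.5, 25, 50 μM). 10^5 cells in serum-free 0.1% BSA medium with compound were placed on 8 μm membranes coated with Matrigel (125 μg/cm^2), with 10% FBS plus compound below. After 6 h at 37 °C, cells on the filter underside were Diff-Quick stained and counted.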

As for `CCCc1c(OCCCCCOc2coc(CO)cc2=O)ccc(Cl)c1Cl` [EH22900, 5-[5-(3,4-Dichloro-2-propylphenyloxy)pentyloxy]-2-(hydroxymethyl)-4H-pyran-4-one], the “Small GTPases activities Rac” value in the experiment with Rac is recorded as “−”. In addition, the “concentration inhibiting MMP-9 in a dose-dependant manner (zymogram gel)” value in the experiment on MMP-9 is 5 µM. The “concentration inhibiting MMP-2 in a dose-dependant manner (zymogram gel)” value in the experiment on MMP-2 is 5 µM. The “Cell architecture modification actin staining (R: ruffles; FC: focal complexes) NIH3T3” value with NIH3T3 is on record as “R-, FC+”. Moreover, the “concentration at which specific inhibition of membrane ruffles and increase in the number of stress fibers was observed” value in the experiment with NIH3T3 stood at 10 µM. Moreover, the IC50 in experiment [1] was 10 µM; in experiment [1] (Homo sapiens, HCT-116, 144 h), at most 15 µM; in the experiment on MCF-7 breast carcinoma, 50 µM; with NIH3T3 mouse fibroblasts, 30 µM; in the experiment with H460 lung carcinoma it was 15 µM; in experiment [2], 30 µM. For the same molecule, the IC50 in the experiment on MCF10-A is above 50 µM. Also, in the experiment on NIH3T3 cells, the Colony formation result is “+”. Besides, the “Ras-dependent neoR clones formation” value with NIH3T3 cells (NIH3T3 transfected with RasVal12) is recorded as “inhibited”. Further, the “concentration giving significant inhibition of invasive properties of MDA-MB-231 cells” value with MDA-MB-231 cells was found to be 17.5 µM. Also, the Invasion result with MDA-MB-231 cells is on record as “Decrease”.

Regarding `C/C=C/c1oc(CO)cc(=O)c1OCCCCCOc1ccc(Cl)c(Cl)c1CCC` [EH31101, (E)-3-[5-(3,4-Dichloro-2-propylphenyloxy)pentyloxy]-6-(hydroxymethyl)-2-(propen-1-yl)-4H-pyran-4-one], the “Small GTPases activities Rac” value in the experiment on Rac is “−”. In the experiment with MMP-9, the “concentration inhibiting MMP-9 in a dose-dependant manner (zymogram gel)” value was found to be 0.1 µM. Also, in the experiment with MMP-2, the “concentration inhibiting MMP-2 in a dose-dependant manner (zymogram gel)” value came out at 0.1 µM. Moreover, the “Cell architecture modification actin staining (R: ruffles; FC: focal complexes) NIH3T3” value in the experiment on NIH3T3 is “R-, FC+”. For the same molecule, the “concentration at which specific inhibition of membrane ruffles and increase in the number of stress fibers was observed” value with NIH3T3 was 50 µM. Also, the IC50 is 30 µM in experiment [1] (Homo sapiens, HCT-116, 144 h); 25 µM in the experiment on MCF-7 breast carcinoma; above 50 µM in the experiment with NIH3T3 mouse fibroblasts; 25 µM in the experiment on H460 lung carcinoma; 25 µM in experiment [2]; 35 µM in the experiment on MCF10-A. Moreover, in the experiment with NIH3T3 cells, the Colony formation entry was “−”. In addition, the “concentration giving an increase in invasive properties of MDA-MB-231 cells” value in the experiment on MDA-MB-231 cells is 10 µM. In the experiment with MDA-MB-231 cells, the Invasion result is given as “Increase”.
